Values of other authors as cited in US20110263720A1, “SYNTHESIS OF ALPHA-TOCOPHEROLQUINONE DERIVATIVES, AND METHODS OF USING THE SAME” (Penwest Pharmaceuticals Co., priority 2010, published 2011).

Test system: mitochondrial function
Details: in vitro; compared with CoQ10; background statement, no data

Structure (SMILES): CC1=C(C)C(=O)C(CC[C@](C)(O)CCC[C@H](C)CCC[C@H](C)CCCC(C)C)=C(C)C1=O [R,R,R-alpha-tocopherolquinone]
- potency in enhancing mitochondrial function: far more potent than CoQ^10
